# Like-named read-outs stand apart in the source and are kept apart here.
# Key:
# [1] = tested on: New Zealand white rabbits; test: Vaginal irritation study, 7-day intravaginal instillation; assay type: in vivo
# Method: Described herein is a study to assess and evaluate vaginal irritation effect of Niclosamide. A total of 9 female New Zealand white rabbits were used for the study described herein. The animals were divided into three groups of three animals in each group: Group 1 (G1) animals treated instilled/treated vehicle control; Group 2 (G2) animals instilled/treated with 2.5 mM dose of niclosamide; and Group 3 (G3) animals instilled/treated with 100 mM dose of niclosamide, as shown in Table 21.
# Formulations preparation used for the study were as follows. Vehicle Preparation: 0.85% sodium chloride, 0.1% sorbic acid, 10% lactic acid and 75% water was taken in mortar and pestle and triturated, pH was adjusted to approximately 4.5 using 10 N sodium hydroxide. […] Remaining volume was adjusted with water. Total quantity was triturated again and formulation pH was confirmed with pH paper. […] Total quantity was triturated again and formulation pH was confirmed with pH paper.
# Instillation of the treatment was done using prefilled FG-08 tube attached to 1 mL disposable syringe at a dose volume of 1.0 mL per animal continuously for 7 days (from day 1 to 7). Irritation potential was scored in all animals using draize scale daily before Niclosamide instillation and approximately 30 minutes after Niclosamide instillation daily from day 1 to 7 and 24 hours after last test item instillation (day 8). […]
# [2] = Solubility in solvents/co-solvents; assay type: physicochemical
# Method: Solubility of the drug was determined in selected solvent/co-solvents. About 10 g of the solvent was taken and small amount of drug was added in increments till 500 mg. […] These solutions were further diluted quantitatively to about test concentration and analyzed using chromatograph.
# [3] = tested on: fresh human semen; test: Spermicidal effect on mixing with fresh human semen (effective ranges); assay type: cell-based
# Method: With niclosamide dissolved in DMSO, a spermicidal effect at ≥10 mM was observed. With niclosamide in formulation, a spermicidal effect at a final concentration between 5 mM and 7.5 mM or higher, was observed. The effective range for niclosamide was determined to be from 5-150 mM. Ranges of: A spermicidal effect at ≥50% (v/v/) was observed when mixing polyethylene glycol-400 (PEG-400) with fresh human semen. The effective range for PEG-400 was determined to be from 50-65%.
# [4] = anhydrous form; cited from earlier work
# [5] = Saturation solubility in various solvents (PEG grades); assay type: physicochemical
# Excerpt: Saturation solubility of niclosamide was studied in the solvents, to know the highest concentration of niclosamide that can be solubilized, as depicted in table 6. [table]
# [6] = cited from earlier work
# [7] = tested on: human sperm; test: Sperm motility of fresh human semen mixed with different concentrations of niclosamide (FIG. 1); assay type: cell-based
# Method: FIG. 1 is a graph depicting the dose dependent effect of niclosamide dissolved in DMSO, on sperm motility. Fresh human semen samples were mixed with the different concentrations of niclosamide in vitro, followed by analysis of sperm motility within 2 minutes. The x-axis depicts the different concentrations of niclosamide mixed with the semen sample. The x-axis, from Left to Right: the gray bar depicts an untreated semen sample, the blue bar depicts a vehicle control, and the eight pink bars depict the increasing concentrations of niclosamide tested. […]
# Sperm motility is a functional measurement of the sperm themselves. Sperm may be sampled either directly from semen or from washed sperm samples, and assessed for motility either manually or by CASA (Computer Assisted Sperm Analysis) (Chapter 59—Male Reproductive System. Systems Toxicologic Pathology. Dianne M. Creasy, Robert E. Chapin, in Haschek and Rousseaux's Handbook of Toxicologic Pathology (Third Edition), 2013; Amann R P et al. Computer-assisted sperm analysis (CASA): capabilities and potential developments. Theriogenology. 2014 Jan. 1; 81(1):5-17). Sperm motility (expressed as %) may be evaluated in duplicate within 1 h of semen collection, by counting moving and nonmoving sperm in several microscopic fields. […] Slow-moving sperm (class B+C) can be easily and accurately counted compared with rapidly moving (class A) sperm. […]
# [8] = Saturation solubility in buffers (shake flask); assay type: physicochemical; conditions: 37° C., 24 hours
# Method: Solubility was established using 100 mL of each of the chosen buffers, and was conducted using shake flask method. […] Further, the solution was agitated at 37° C. for 24 hours and checked physically for un-dissolved mass. This saturated solution was centrifuged and injected an aliquot in to the chromatograph.
# [9] = Neutral Hydrolysis (3 mL H2O at 100° C. for 8 hours)
compound,measurement,setting,value
O=C(Nc1ccc([N+](=O)[O-])cc1Cl)c1cc(Cl)ccc1O [niclosamide],Clinical Signs and Mortality,"[1]; 2.5 and 100 mM, 1.0 mL per animal intravaginally for 7 days, female rabbits",No treatment related mortality and adverse clinical signs
same,Gross Pathology of vagina,"[1]; rabbit, in vivo",reddened at central lower half to caudal area mildly in all animals belonging to all groups
same,Solubility,[2]; polyethylene glycol (PEG 400),47.4 mg/g
same,Solubility,[2]; polyethylene glycol (PEG 1000),46.6 mg/g
same,Solubility,[2]; polyethylene glycol (PEG 2000),45.6 mg/g
same,concentration with spermicidal effect,[3]; niclosamide dissolved in DMSO,≥ 10 mM
same,effective range for niclosamide,[3]; spermicidal effect,5 to 150 mM
same,water solubility,[4],about 13.32 μg/mL
same,amount of API solubilised completely,"[5]; 10 g of PEG-400, stirring and heating at 50° C. for 40 min",700 mg was
same,amount of API solubilised completely,"[5]; 10 g of PEG-1000, stirring and heating at 50° C. for 40 min",500 mg was
same,amount of API solubilised completely,"[5]; 10 g of PEG-2000, stirring and heating at 50° C. for 40 min",500 mg was
same,maximum solubility,"[5]; in PEG-1000, heating and stirring",5 % w/w
same,maximum solubility,"[5]; in PEG-2000, heating and stirring",5 % w/w
same,% Degradation,[6]; Acid Hydrolysis (3 mL HCl at 100° C. for 8 hours),No degradation
same,potency after degradation,[6]; Alkaline Hydrolysis (0.1N NaOH at 100° C. for 2 hours),decreased to 97%
same,% Degradation,"[6]; Alkaline Hydrolysis (0.1N NaOH at 100° C. for 2 hours), listed as drug substance",prone to alkaline hydrolysis
same,"% Degradation, Impurity 1",[6]; [9],Impurity 1-0.02%
same,"% Degradation, Impurity 2",[6]; [9],Impurity 2-0.03%
same,"% Degradation, Impurity 3",[6]; No stress Conditions,Impurity 3-0.04%
same,% Degradation,[6]; Oxidative Hydrolysis (3 mL H2O2 at 100° C. for 8 hours),No degradation
same,% Degradation,[6]; Temperature Effect (100° C. for 8 hours),No degradation
same,% Degradation,[6]; UV Exposure for 7 days,No degradation
same,"Minimum dose to see effect (inhibits sperm motility), concentration",[7]; concentration in formulation,4 mM
same,effective niclosamide concentration that causes 100% decrease in number of motile sperm cells,"[7]; fresh semen, 2 minutes, vs control sample",≥ 10 mM
same,Solubility,[8]; pH 1.2 (0.1N HCl),insoluble and Nil
same,Solubility,[8]; pH 2.0 (0.01N HCl),insoluble and Nil
same,Solubility,[8]; pH 3.0 acid phthalate buffer,insoluble and Nil
same,Solubility,[8]; pH 4.0 acid phthalate buffer,insoluble and Nil
same,Solubility,[8]; pH 4.5 acetate buffer,insoluble and Nil
same,Solubility,[8]; pH 5.1 acetate buffer,insoluble and Nil

# Source: patent US20230044449A1, “NICLOSAMIDE FORMULATIONS AND METHODS OF USE AS CONTRACEPTIVE” (YourChoice Therapeutics, Inc., priority 2020, published 2023)
